In article PMC13626384 (Journal of medicinal chemistry, 2025):
Read-outs that look alike come from different tables or passages of the source.

Legend:
D283-med cell line = experiment: Cytotoxicity against D283-med cells; type: cell-based, human
[1] = PAMPA-BBB permeability assay
SF188 cell line = experiment: Cytotoxicity against SF188 cells; type: cell-based, human
H460 cell line = experiment: Cytotoxicity against H460 cells; type: cell-based; conditions: read-out: H460 IC50; non-small cell lung cancer cell line
[2] = Homo sapiens, D283 Med, read-out: D283-med IC50, medulloblastoma cell line
[3] = Homo sapiens, SF-188, read-out: SF188 IC50, glioblastoma cell line
[4] = read-out: D283-med IC50, medulloblastoma cell line
[5] = read-out: SF188 IC50, glioblastoma cell line

Compound | IC50 (D283-med cell line; [4]) | IC50 (H460 cell line) | IC50 (SF188 cell line; [5]) | also measured
CCCCCC(=O)N[C@H](C(=O)NC(CSc1c(F)c(F)c(F)c(F)c1F)C(=O)N[C@@H](CC(C)C)C(=O)[C@@]1(C)CO1)C(C)C (stereo in doubt) [Compound 1, N-((S)-3-Methyl-1-(((S)-1-(((S)-4-methyl-1-((R)-2-methyloxiran-2-yl)-1-oxopentan-2-yl)amino)-1-oxo-3-((perfluorophenyl)thio)propan-2-yl)amino)-1-oxobutan-2-yl)hexanamide] |  |  |  | IC50 (D283-med cell line; [2]): 236 ± 27 nM; Mean Permeability ([1]; PAMPA-BBB): 0.63 10^−6 cm/sec; IC50 (SF188 cell line; [3]): 143 ± 18 nM
CC(C)C[C@H](NC(=O)C(CSc1c(F)c(F)c(F)c(F)c1F)NC(=O)[C@@H](NC(=O)Cc1c(F)c(F)c(F)c(F)c1F)C(C)C)C(=O)[C@@]1(C)CO1 (stereo in doubt) [Compound 3, (S)-3-Methyl-N-((S)-1-(((S)-4-methyl-1-((R)-2-methyloxiran-2-yl)-1-oxopentan-2-yl)amino)-1-oxo-3-((perfluorophenyl)thio)propan-2-yl)-2-(2-(perfluorophenyl)acetamido)butanamide] |  |  |  | IC50 (D283-med cell line; [2]): 102 ± 7 nM; IC50 (SF188 cell line; [3]): 213 ± 10 nM
CCCCCC(=O)N[C@H](C(=O)N[C@@H](CCS(C)(=O)=O)C(=O)N[C@@H](CC(C)C)C(=O)[C@@]1(C)CO1)C(C)C [Carmaphycin B, reference compound] | 13 ± 2 nM | 111 ± 30 nM | 19 ± 2 nM | 
CC(C)C[C@H](NC(=O)[C@@H](CSc1c(F)c(F)c(F)c(F)c1F)NC(=O)Cc1c(F)c(F)c(F)c(F)c1F)C(=O)[C@@]1(C)CO1 [Compound 5, (S)-N-((S)-4-Methyl-1-((R)-2-methyloxiran-2-yl)-1-oxopentan-2-yl)-2-(2-(perfluorophenyl)acetamido)-3-((perfluorophenyl)thio)propenamide] | > 10000 nM | > 10000 nM | > 10000 nM | 
CC(C)C[C@H](NC(=O)[C@@H](CSc1c(F)c(F)c(F)c(F)c1F)NC(=O)c1cc(Cl)ccc1Cl)C(=O)[C@@]1(C)CO1 [Compound 6, 2,5-Dichloro-N-((S)-1-(((S)-4-methyl-1-((R)-2-methyloxiran-2-yl)-1-oxopentan-2-yl)amino)-1-oxo-3-((perfluorophenyl)thio)propan-2-yl)benzamide] |  |  |  | IC50 (D283-med cell line; [2]): > 10000 nM; IC50 (SF188 cell line; [3]): 4080 ± 770 nM
CC(C)C[C@H](NC(=O)CNC(=O)Cc1c(F)c(F)c(F)c(F)c1F)C(=O)[C@@]1(C)CO1 [Compound 7, N-((S)-4-Methyl-1-((R)-2-methyloxiran-2-yl)-1-oxopentan-2-yl)-2-(2-(perfluorophenyl)acetamido)acetamide] |  |  |  | IC50 (D283-med cell line; [2]): > 10000 nM; IC50 (SF188 cell line; [3]): > 10000 nM
CC(C)C[C@H](NC(=O)CNC(=O)c1cc(Cl)ccc1Cl)C(=O)[C@@]1(C)CO1 [Compound 8, 2,5-Dichloro-N-(2-(((S)-4-methyl-1-((R)-2-methyloxiran-2-yl)-1-oxopentan-2-yl)amino)-2-oxoethyl)benzamide] |  |  |  | IC50 (D283-med cell line; [2]): 3700 ± 270 nM; IC50 (SF188 cell line; [3]): 532 ± 23 nM
CC(C)C[C@H](NC(=O)[C@@H]1Cc2c(F)c(F)c(c(F)c2F)Sc2ccc(cc2)CC(=O)N[C@@H](C(C)C)C(=O)N1)C(=O)[C@@]1(C)CO1 [Compound 9, (5S,8S)-3^2,3^3,3^5,3^6-Tetrafluoro-8-isopropyl-N-((S)-4-methyl-1-((R)-2-methyloxiran-2-yl)-1-oxopentan-2-yl)-7,10-dioxo-2-thia-6,9-diaza-1,3(1,4)-dibenzenacycloundecaphane-5-carboxamide] |  | 754 nM | 87 nM | 
CC(C)C[C@H](NC(=O)[C@@H]1Cc2c(F)c(F)c(c(F)c2F)Sc2cccc(c2)CC(=O)N[C@@H](C(C)(C)C)C(=O)N1)C(=O)[C@@]1(C)CO1 [Compound 12, (5S,8S)-8-(Tert-butyl)-3^2,3^3,3^5,3^6-tetrafluoro-N-((S)-4-methyl-1-((R)-2-methyloxiran-2-yl)-1-oxopentan-2-yl)-7,10-dioxo-2-thia-6,9-diaza-1(1,3),3(1,4)-dibenzenacycloundecaphane-5-carboxamide] | 432 ± 74 nM | 2470 nM | 507 ± 134 nM | 
CC(C)C[C@H](NC(=O)[C@@H]1Cc2c(F)c(F)c(c(F)c2F)Sc2cccc(c2)CC(=O)N2C[C@H]3[C@@H]([C@H]2C(=O)N1)C3(C)C)C(=O)[C@@]1(C)CO1 [Compound 13, (61S,64S,65R,9S)-1^2,1^3,1^5,1^6-Tetrafluoro-6^6,6^6-dimethyl-N-((S)-4-methyl-1-((R)-2-methyloxiran-2-yl)-1-oxopentan-2-yl)-5,7-dioxo-2-thia-6^3,8-diaza-6(3,4)-bicyclo[3.1.0]hexana-1(1,4),3(1,3)-dibenzenacyclodecaphane-9-carboxamide] | > 15000 nM | > 15000 nM | > 15000 nM | 
CC(C)C[C@H](NC(=O)[C@@H]1Cc2c(F)c(F)c(c(F)c2F)Sc2cccc(c2)CC(=O)N[C@H](C(C)C)CC(=O)N1)C(=O)[C@@]1(C)CO1 [Compound 16, (5S,9S)-3^2,3^3,3^5,3^6-Tetrafluoro-9-isopropyl-N-((S)-4-methyl-1-((R)-2-methyloxiran-2-yl)-1-oxopentan-2-yl)-7,11-dioxo-2-thia-6,10-diaza-1(1,3),3(1,4)-dibenzenacyclododecaphane-5-carboxamide] | 6090 nM | > 15000 nM | > 15000 nM | 
CC(C)C[C@H](NC(=O)[C@@H]1Cc2c(F)c(F)c(c(F)c2F)Sc2cccc(c2)CC(=O)N[C@@H](C(C)C)CC(=O)N1)C(=O)[C@@]1(C)CO1 [Compound 17, (5S,9R)-3^2,3^3,3^5,3^6-Tetrafluoro-9-isopropyl-N-((S)-4-methyl-1-((R)-2-methyloxiran-2-yl)-1-oxopentan-2-yl)-7,11-dioxo-2-thia-6,10-diaza-1(1,3),3(1,4)-dibenzenacyclododecaphane-5-carboxamide] | 1800 nM | 5380 nM | 2460 nM | 
CC(C)C[C@H](NC(=O)[C@@H]1Cc2c(F)c(F)c(c(F)c2F)Sc2cccc(c2)CC(=O)N(C)[C@@H](C(C)C)C(=O)N1)C(=O)[C@@]1(C)CO1 [Compound 19, (5S,8S)-3^2,3^3,3^5,3^6-Tetrafluoro-8-isopropyl-9-methyl-N-((S)-4-methyl-1-((R)-2-methyloxiran-2-yl)-1-oxopentan-2-yl)-7,10-dioxo-2-thia-6,9-diaza-1(1,3),3(1,4)-dibenzenacycloundecaphane-5-carboxamide] | 10800 nM | > 15000 nM | 12300 nM | 
CC(C)C[C@H](NC(=O)[C@@H]1Cc2c(F)c(F)c(c(F)c2F)Sc2cccc(c2)CC(=O)NC(C)(C)C(=O)N1)C(=O)[C@@]1(C)CO1 [Compound 20, (S)-3^2,3^3,3^5,3^6-Tetrafluoro-8,8-dimethyl-N-((S)-4-methyl-1-((R)-2-methyloxiran-2-yl)-1-oxopentan-2-yl)-7,10-dioxo-2-thia-6,9-diaza-1(1,3),3(1,4)-dibenzenacycloundecaphane-5-carboxamide] | 662 ± 44 nM | 828 ± 57 nM | 611 ± 85 nM | 
CC(C)C[C@H](NC(=O)[C@@H]1Cc2c(F)c(F)c(c(F)c2F)Sc2cccc(c2)CC(=O)NCC(=O)N1)C(=O)[C@@]1(C)CO1 [Compound 21, (S)-32,33,35,36-Tetrafluoro-N-((S)-4-methyl-1-((R)-2-methyloxiran-2-yl)-1-oxopentan-2-yl)-7,10-dioxo-2-thia-6,9-diaza-1(1,3),3(1,4)-dibenzenacycloundecaphane-5-carboxamide] | 5000 nM | > 15000 nM | > 15000 nM | 
CC(C)C[C@H](NC(=O)[C@@H]1Cc2c(F)c(F)c(c(F)c2F)[S+]([O-])c2cccc(c2)CC(=O)N[C@@H](C(C)(C)O)C(=O)N1)C(=O)[C@@]1(C)CO1 (stereo partly drawn) [Compound 23, (5S,8S)-3^2,3^3,3^5,3^6-Tetrafluoro-8-(2-hydroxypropan-2-yl)-N-((S)-4-methyl-1-((R)-2-methyloxiran-2-yl)-1-oxopentan-2-yl)-7,10-dioxo-2-thia-6,9-diaza-1(1,3),3(1,4)-dibenzenacycloundecaphane-5-carboxamide 2-oxide] | 176 ± 2 nM | 1640 ± 87 nM | 205 ± 21 nM | 
CC(C)CC(NC(=O)C1Cc2c(F)c(F)c(c(F)c2F)S(=O)(=O)c2cccc(c2)CC(=O)NC(C(C)C)CC(=O)N1)C(=O)C1(C)CO1 [Compound 25, (5S,9S)-3^2,3^3,3^5,3^6-Tetrafluoro-9-isopropyl-N-((S)-4-methyl-1-((R)-2-methyloxiran-2-yl)-1-oxopentan-2-yl)-7,11-dioxo-2-thia-6,10-diaza-1(1,3),3(1,4)-dibenzenacyclododecaphane-5-carboxamide 2,2-dioxide] | > 15000 nM | > 15000 nM | > 15000 nM | 
CC(C)C[C@H](NC(=O)[C@@H]1Cc2c(F)c(F)c(c(F)c2F)S(=O)(=O)c2cccc(c2)CC(=O)N[C@@H](C(C)C)CC(=O)N1)C(=O)[C@@]1(C)CO1 [Compound 26, (5S,9R)-3^2,3^3,3^5,3^6-Tetrafluoro-9-isopropyl-N-((S)-4-methyl-1-((R)-2-methyloxiran-2-yl)-1-oxopentan-2-yl)-7,11-dioxo-2-thia-6,10-diaza-1(1,3),3(1,4)-dibenzenacyclododecaphane-5-carboxamide 2,2-dioxide] | 472 ± 36 nM | 2360 nM | 673 ± 50 nM | 
CC(=O)O[C@@H](C)[C@@H]1NC(=O)Cc2cccc(c2)S(=O)(=O)c2c(F)c(F)c(c(F)c2F)C[C@@H](C(=O)N[C@@H](CC(C)C)C(=O)[C@@]2(C)CO2)NC1=O [Compound 28, (S)-1-((5S,8S)-3^2,3^3,3^5,3^6-Tetrafluoro-5-(((S)-4-methyl-1-((R)-2-methyloxiran-2-yl)-1-oxopentan-2-yl)carbamoyl)-2,2-dioxido-7,10-dioxo-2-thia-6,9-diaza-1(1,3),3(1,4)-dibenzenacycloundecaphane-8-yl)ethyl acetate] | 44 ± 6 nM | 549 ± 21 nM | 148 ± 35 nM | 
Cc1ncc2n1-c1ccc(Cl)cc1C(c1ccccc1F)=NC2 [Midazolam, reference compound] |  |  |  | Papp ([1]; PAMPA): 6.8 ×10⁻⁶ cm/s; recovery ([1]; PAMPA): 84%
Cn1c(=O)c2[nH]cnc2n(C)c1=O [Theophylline, reference compound] |  |  |  | recovery ([1]; PAMPA, % Recovery, PAMPA-BBB): 96%
